# Results taken from patent US8680010B2, “Synergistic herbicidal composition containing penoxsulam and florasulam” (Dow AgroSciences, LLC., priority 2011, dated 2014).
# What was measured:
# Format in all cases: in vivo
# [1] = tested on: common mallow (Malva neglecta Wallr.); assay: Field weed control by penoxsulam plus florasulam, MALNE; conditions: 90 DAA
# Procedure: (§1) Field trials were conducted in olive tree crops in Spain using standard herbicide small plot research methodology. Plot size was typical for small plot research in tree crops, varying from 4 to 10 meters (m) wide by 4 to 10 m long. […] Soil types ranged from coarse to medium to fine soil texture. Perennial olive crops were transplanted by hand into orchards as per normal local cultural practices. The olive crop was grown using normal cultural practices for fertilization, watering and maintenance to ensure good growth of the crop and the weeds.
# (§2) Treatments were applied by backpack sprayer using either compressed air or CO2, at spray pressures at 300 kilopascals (kPa). Spray tips were typically Flat Fan Teejet nozzles, such as FanJet 120 or Teejet 11003 VP. Spray volumes were approximately 300 liters per hectare (L/ha). […]
# (§3) For each treatment, the appropriate formulated product amount to treat the plot area, to achieve the desired application rate, based on unit area of application (hectare), was calculated, measured, and mixed in water prior to applying with the backpack sprayer […]
# [2] = tested on: sowthistle (Sonchus species); assay: Field weed control by penoxsulam plus florasulam, SONSS; conditions: 99-175 DAA
# Procedure: as §1, §2, §3
# [3] = tested on: chamomile, mayweed (Anthemis cotula L.); assay: Field weed control by penoxsulam plus florasulam, ANTCO; conditions: 30-45 DAA
# Procedure: as §1
# (§4) Treatments were applied by backpack sprayer using either compressed air or CO2, at spray pressures at 300 kilopascals (kPa). Spray tips were typically Flat Fan Teejet nozzles, such as FanJet 120 or Teejet 11003 VP. Spray volumes were approximately 300 liters per hectare (L/ha). The weed spectrum included, but was not limited to, chamomile, (Anthemis cotula L., […]), field marigold (Calendula arvensis, CLDAR), henbit (Lamium amplexicaule L, LAMAM), annual sowthistle (Sonchus oleraceus L., SONOL), common mallow (Malva neglecta Wallr., MALNE), corn salad (Valerianella echinata, VLLEC), horseweed (Conyza canadensis (L.) Cronq., ERICA), field madder (Sherardia arvensis L., SHRAR), and sowthistle (Sonchus species, SONSS). Treatments were applied preemergence or early postemergence to the stage of the weeds. Olive tree spacings were typically rows that were 7 to 8 m apart, and trees in the row were from 4 to 6 m apart.
# (§5) For each treatment, the appropriate formulated product amount to treat the plot area, to achieve the desired application rate, based on unit area of application (hectare), was calculated, measured, and mixed in water prior to applying with the backpack sprayer
# (§6) Treatments were rated as compared to the untreated control plots.
# (§7) The treated plots and control plots were rated blind at various intervals after application. Ratings were based of Percent (%) Visual weed control, where 0 corresponds to no injury and 100 corresponds to complete kill.
# (§8) The following equation was used to calculate the expected activity of mixtures containing two active ingredients, A and B: Expected=A+B−(A×B/100)
# (§9) A=observed efficacy of active ingredient A at the same concentration as used in the mixture;
# (§10) B=observed efficacy of active ingredient B at the same concentration as used in the mixture.
# [4] = tested on: field marigold (Calendula arvensis); assay: Field weed control by penoxsulam plus florasulam, CLDAR; conditions: 30-45 DAA
# Procedure: as §1, §2, §3
# [5] = tested on: corn salad (Valerianella echinata); assay: Field weed control by penoxsulam plus florasulam, VLLEC; conditions: 90 DAA
# Procedure: as §1, §4, §5, §6, §7, §8, §9, §10
# [6] = tested on: henbit (Lamium amplexicaule L.); assay: Field weed control by penoxsulam plus florasulam, LAMAM; conditions: 30-45 DAA
# Procedure: as §1, §4, §5, §6, §7, §8, §9, §10
# [7] = tested on: field madder (Sherardia arvensis L.); assay: Field weed control by penoxsulam plus florasulam, SHRAR; conditions: 99-175 DAA
# Procedure: as §1, §2, §3
# [8] = tested on: annual sowthistle (Sonchus oleraceus L.); assay: Field weed control by penoxsulam plus florasulam, SONOL; conditions: 30-45 DAA
# Procedure: as §1, §4, §5, §6, §7, §8, §9, §10
# [9] = tested on: horseweed (Conyza canadensis (L.) Cronq.); assay: Field weed control by penoxsulam plus florasulam, ERICA; conditions: 99-175 DAA
# Procedure: as §1, §2, §3
structure (smiles),measurement,setting,value
"COc1ncc(F)c2nc(S(=O)(=O)Nc3c(F)cccc3F)nn12 [Florasulam, N-(2,6-difluorophenyl)-8-fluoro-5-methoxy[1,2,4]-triazolo[1,5-c]pyrimidine-2-sulfonamide]",% Control MALNE Obs,[1]; florasulam 5 gai/ha,50%
same,% Control SONSS Obs,[2]; florasulam 7.5 gai/ha,8%
same,% Control ANTCO Obs,[3]; florasulam 5 gai/ha,50%
same,% Control ANTCO Obs,[3]; florasulam 6.3 gai/ha,69%
same,% Control ANTCO Obs,[3]; florasulam 7.5 gai/ha,95%
same,% Control CLDAR Obs,[4]; florasulam 5 gai/ha,40%
same,% Control VLLEC Obs,[5]; florasulam 5 gai/ha,10%
same,% Control VLLEC Obs,[5]; florasulam 6.3 gai/ha,10%
same,% Control LAMAM Obs,[6]; florasulam 5 gai/ha,5%
same,% Control LAMAM Obs,[6]; florasulam 6.3 gai/ha,30%
same,% Control LAMAM Obs,[6]; florasulam 7.5 gai/ha,30%
same,% Control SHRAR Obs,[7]; florasulam 7.5 gai/ha,0%
same,% Control SONOL Obs,[8]; florasulam 5 gai/ha,50%
same,% Control SONOL Obs,[8]; florasulam 6.3 gai/ha,60%
same,% Control SONOL Obs,[8]; florasulam 7.5 gai/ha,60%
same,% Control ERICA Obs,[9]; florasulam 7.5 gai/ha,51%
COc1cnc(OC)n2nc(NS(=O)(=O)c3c(OCC(F)F)cccc3C(F)(F)F)nc12 [Penoxsulam],% Control MALNE Obs,[1]; penoxsulam 10 gai/ha,8%
same,% Control SONSS Obs,[2]; penoxsulam 20 gai/ha,53%
same,% Control ANTCO Obs,[3]; penoxsulam 10 gai/ha,0%
same,% Control ANTCO Obs,[3]; penoxsulam 13 gai/ha,5%
same,% Control ANTCO Obs,[3]; penoxsulam 15 gai/ha,5%
same,% Control CLDAR Obs,[4]; penoxsulam 10 gai/ha,5%
same,% Control VLLEC Obs,[5]; penoxsulam 10 gai/ha,80%
same,% Control VLLEC Obs,[5]; penoxsulam 13 gai/ha,80%
same,% Control LAMAM Obs,[6]; penoxsulam 10 gai/ha,0%
same,% Control LAMAM Obs,[6]; penoxsulam 13 gai/ha,0%
same,% Control LAMAM Obs,[6]; penoxsulam 15 gai/ha,4%
same,% Control SHRAR Obs,[7]; penoxsulam 20 gai/ha,0%
same,% Control SONOL Obs,[8]; penoxsulam 10 gai/ha,0%
same,% Control SONOL Obs,[8]; penoxsulam 13 gai/ha,2%
same,% Control SONOL Obs,[8]; penoxsulam 15 gai/ha,5%
same,% Control ERICA Obs,[9]; penoxsulam 20 gai/ha,23%
